Measured values as given in ChEMBL document CHEMBL1201862, “PubChem BioAssay data set” (2004).
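Grown in 96-well plates, cells were treated for 48 hours with each compound at five concentrations. Insufficient inhibition: endpoint recorded as highest concentration tested. GI50 is the concentration that inhibits growth by half.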 The source made the active and inactive calls. Rule as the data show it: active = GI50 up to about 1.1 µM and inactive = higher.

Key:
Assay in all cases: NCI tumour cell line growth inhibition, 48 h
[1] = tested on: MOLT-4
[2] = tested on: OVCAR-4
[3] = tested on: Hs-578T
[4] = tested on: HCT-15
[5] = tested on: CAKI-1
[6] = tested on: RPMI-8226
[7] = tested on: 786-0
[8] = tested on: SF-268
[9] = tested on: PC-3
[10] = tested on: HL-60
[11] = tested on: UACC-257
[12] = tested on: SF-295
[13] = tested on: A549
[14] = tested on: SW-620
[15] = tested on: COLO 205
[16] = tested on: Malme-3M
[17] = tested on: RXF 393
[18] = tested on: NCI-H226
[19] = tested on: LOX IMVI

Measured: GI50

CCN(CC)c1ccc2nc3ccc(/N=N/c4c(O)ccc5ccccc45)cc3[n+](-c3ccccc3)c2c1
> 100 µM: [4]
inactive: [1] > 100 µM | [2] > 100 µM | [3] > 100 µM | [5] > 100 µM | [6] > 100 µM | [7] > 100 µM | [8] > 100 µM | [9] > 100 µM | [10] 23.9 µM | [11] > 100 µM | [12] > 100 µM | [13] > 100 µM | [14] > 100 µM | [15] > 100 µM | [16] > 100 µM | [17] > 100 µM | [18] > 100 µM

CC(C)(Br)C(=O)N1CCN(C(c2ccccc2)c2ccccc2)CC1
64.9 µM: [4]
inactive: [1] 30.1 µM | [2] > 100 µM | [3] 22.6 µM | [19] > 100 µM | [5] 84.1 µM | [7] > 100 µM | [8] 64 µM | [9] 50.1 µM | [10] 21.5 µM | [11] 41.9 µM | [12] > 100 µM | [13] > 100 µM | [14] > 100 µM | [15] > 100 µM | [16] > 100 µM | [17] 31.3 µM | [18] 95.1 µM

Cc1ccc(S(=O)(=O)N/N=C2\CC3C4CCC3C2C4)cc1 (centres undefined)
inactive: [1] > 100 µM | [2] > 100 µM | [3] > 100 µM | [19] > 100 µM | [5] > 100 µM | [7] > 100 µM | [8] > 100 µM | [9] > 100 µM | [10] > 100 µM | [11] > 100 µM | [12] > 100 µM | [13] > 100 µM | [14] > 100 µM | [15] > 100 µM | [16] > 100 µM | [17] > 100 µM | [18] > 100 µM
> 100 µM: [4]

CCOC(=O)N1CCN(Cc2cc(=O)n3cc(C)ccc3n2)CC1
> 100 µM: [4]
inactive: [1] > 100 µM | [2] > 100 µM | [3] > 100 µM | [19] > 100 µM | [5] > 100 µM | [6] > 100 µM | [7] > 100 µM | [8] > 100 µM | [9] > 100 µM | [10] > 100 µM | [11] > 100 µM | [12] > 100 µM | [13] > 100 µM | [14] > 100 µM | [15] > 100 µM | [16] > 100 µM | [18] > 100 µM

CC1=CN(c2ccccc2)S2=C1c1sc3c(c1N2c1ccc(Br)cc1)CCCC3 (centres undefined)
inactive: [1] > 100 µM | [2] > 100 µM | [3] > 100 µM | [19] 97.1 µM | [5] > 100 µM | [6] > 100 µM | [7] > 100 µM | [8] > 100 µM | [9] > 100 µM | [10] > 100 µM | [11] > 100 µM | [12] > 100 µM | [13] > 100 µM | [14] > 100 µM | [15] > 100 µM | [17] > 100 µM | [18] > 100 µM
> 100 µM: [4]

CC(C#N)NCc1ccc(C(C)NC(C)C#N)cc1 (centres undefined)
inactive: [1] > 100 µM | [2] > 100 µM | [3] > 100 µM | [19] > 100 µM | [5] > 100 µM | [7] > 100 µM | [8] > 100 µM | [9] > 100 µM | [10] > 100 µM | [11] > 100 µM | [12] > 100 µM | [13] > 100 µM | [14] > 100 µM | [15] > 100 µM | [16] 96.6 µM | [17] > 100 µM | [18] > 100 µM
> 100 µM: [4]

N#CCCSC(=S)C1CCCC1=N (centres undefined)
inactive: [1] > 100 µM | [2] > 100 µM | [3] > 100 µM | [5] > 100 µM | [6] > 100 µM | [7] > 100 µM | [8] > 100 µM | [9] > 100 µM | [10] > 100 µM | [11] > 100 µM | [12] > 100 µM | [13] > 100 µM | [14] > 100 µM | [15] > 100 µM | [16] > 100 µM | [17] 42.4 µM | [18] > 100 µM
> 100 µM: [4]

CCOC(=O)c1ccc(NC(=O)O/N=C(/Cl)CC)cc1
inactive: [1] 2 µM | [2] 5.21 µM | [3] 22.8 µM | [5] 4.57 µM | [6] 1.99 µM | [7] 5.85 µM | [8] 19.2 µM | [9] 18.8 µM | [10] 2.21 µM | [11] 16.1 µM | [12] 19.5 µM | [13] 24.8 µM | [14] 1.87 µM | [15] 2.41 µM | [16] 4.56 µM | [17] 16.9 µM | [18] 20.9 µM
13.5 µM: [4]
